In brackets after ≈: the same amount, converted by molar mass.
Assays:
[1] = tested on: N. gonorrhoeae strain NCCP11945; assay: Growth inhibition screen on GC solid media containing 1 mM candidate; format: cell-based, Neisseria gonorrhoeae; conditions: 1 mM candidate in GC agar media; Yes = strain NCCP11945 did not grow
Protocol: (§1) To find potential candidates, 37 organic acids, esters, and salts were tested in a two-tiered screening process. These candidates were chosen based on the carbon chain lengths of the fatty acids, the presence or absence of saturation, and modifications to represent a diverse selection of organic acid candidates. The first screen aimed to determine the ability of each compound to inhibit the growth of N. gonorrhoeae strain NCCP11945 at 1 mM in GC solid media (Table 1). This strain was chosen due to its relatively recent isolation, its antibiotic resistance profile, and the availability of a complete genome sequence. Those candidates able to inhibit the growth of N. gonorrhoeae strain NCCP11945 were investigated in a second assay. The second assay tested the ability of each compound to cause at least a 4-log reduction in viable bacteria at 1 mM with a 2-min exposure time (Table 1).
(§2) The well-characterized N. gonorrhoeae NCCP11945 strain ([36]) was used in the screening stage. Eight isolates obtained from Public Health England, representing circulating isolates from various European locations, were used in the log reduction assays. All isolates were cultured for 24 h prior to testing by plating on GC solid medium (Oxoid Limited, Hampshire, United Kingdom) with Kellogg supplements and incubation at 37°C and 5% CO2 ([37]).

[2] = tested on: N. gonorrhoeae strain NCCP11945; assay: Log reduction assay in GC broth, 2-min exposure; format: cell-based, Neisseria gonorrhoeae; conditions: for log reduction at 1000 µM: Neisseria gonorrhoeae, NCCP11945, 2 min, 1 mM, read-out: Log reduction at 1 mM (calculated log reduction in viable bacteria)
Protocol: as §1
(§3) Log reductions were done as described by Bergsson and coworkers ([18]). Briefly, cells were suspended in GC broth (18 g/liter GC base [Oxoid, Limited] with added defined supplements) to an optical density at 520 nm of 0.3, which is approximately equivalent to 10^7 to 10^8 cells per ml ([38]). […] The contents of the tubes were then mixed at room temperature for 2 min and immediately diluted in a 10-fold dilution series to 10^−4. The dilutions were plated by spreading 10 µl on a quarter of a plate; a 100-µl neat solution was also plated. Plates were then incubated at 37°C for 48 h, with all samples plated in duplicate. […] Additional testing at lower concentrations was also done on the eight clinical isolates of European origin.

[3] = tested on: nine gonococcal isolates (strain NCCP11945 and eight isolates from Public Health England); assay: Minimum bactericidal concentration by log reduction against nine gonococcal isolates; format: cell-based, Neisseria gonorrhoeae; conditions: 2 min; for Killing of all gonococcal cells for all isolates: 1 mM; for MBC: Neisseria gonorrhoeae, lowest concentration giving mean log reduction above 4 from a 2-min exposure, read-out: MBC
Description: The seven candidates were further tested against nine gonococcal isolates, including strain NCCP11945 and eight isolates from Public Health England, to find their minimal bactericidal concentration (MBC). This was defined as the lowest concentration tested to give an average 4-log10 reduction in bacterial count after a 2-min exposure. […] Any candidate that killed all gonococcal cells in the cell suspension was given a log reduction score of six.
as §2, §3

bovine cornea = assay: Bovine corneal opacity and permeability (BCOP) test
Protocol: Bovine eyes were collected from a local slaughter house (ABP, Guildford, Surrey, United Kingdom) and were transported in cold saline solution for testing at the laboratory. Each eye was first visually examined for signs of damage before use. The test was conducted as detailed by Abdelkader and coworkers ([21]). The exposure time of the test substances was 30 s. The selected bactericidal compounds were tested at 1 mM in saline solution, with a corresponding vehicle control (1% ethanol–saline solution) also performed. […] The test area of the cornea was then washed with 10 ml saline solution. Corneal damage to the test area was assessed by fluorescein staining and examination under a cobalt blue filter. Pathological scoring based on opacity, epithelial integrity, and epithelial detachment was done in accordance with previous publications ([19]). Each of the seven lead candidates was tested in triplicate, and each test was performed on a separate day using a different batch of eyeballs. Corneal histology was done as outlined by Abdelkader and coworkers ([21]) by evaluating the damage to the epithelial layer and stroma of the cornea after hematoxylin and eosin staining.

bovine RBCs = assay: Red blood cell (RBC) lysis assay; format: cell-based; conditions: H50 = concentration to lyse 50% of RBCs; MBC from Table 1
Protocol: Whole bovine blood was obtained from a local slaughter house (ABP), adding 90 ml blood to 10 ml 110 mM trisodium citrate anticoagulant. RBCs were isolated the same day. The RBCs were washed by three repeats of centrifugation (1,500 × g for 10 min) and resuspension in phosphate-buffered saline (PBS) with 10 mM glucose (PBSG). Testing was done following the guidelines of the European Union Reference Laboratory for alternatives to animal testing (EURL-ECVAM) ([22]). The organic acids were solubilized in dimethyl sulfoxide (DMSO) and diluted to a maximum DMSO concentration of 10%. In a 2-ml centrifuge tube, 750 µl of the sample was added to 250 µl RBCs. Controls used in the assay were a complete lysis control (deionized water) and a fragility control (PBSG–10% DMSO). Samples were shaken at room temperature for 1 h and then centrifuged at 14,000 × g for 2 min. An aliquot of 750 µl of the supernatant was taken and its absorbance at 451 nm measured.

[4] = tested on: gonococcal cells (isolate NCCP 11945); assay: Log reduction in artificial tear fluid with or without calcium chloride; format: cell-based, Neisseria gonorrhoeae; conditions: calcium 1 mM; Fig. 2
Protocol: The antigonococcal properties of the seven selected fatty acids were tested in artificial tear fluid, which contained calcium chloride. The addition of 1 mM lauric acid, tridecanoic acid, or sodium dodecanoate gave no reduction in bacterial cell number after exposure, in contrast to the results seen when they were tested in culture medium (Fig. 2). […] This was most likely due to the negative effect of calcium on the aqueous solubility of these candidates.
Artificial tear fluid was made as described by Mirejovsky and others ([39]) with or without calcium chloride. […] As with the previous log reductions, 10^7 gonococcal cells (isolate NCCP 11945) were suspended in GC broth. The cell suspension was centrifuged to remove the culture medium, and the bacteria were resuspended in the tear fluid. This was then added to the concentrated organic acid candidates. The cells were then enumerated again after 2 min of exposure to estimate any reduction in cell number due to the exposure to the organic acid.

C. trachomatis = tested on: C. trachomatis; parameters: method as in PMID 9736551; conditions: cited from earlier work
chorioallantoic membrane = assay: Hen's egg test-chorioallantoic membrane (HET-CAM); parameters: species or system white leghorn eggs
Protocol: The samples were all tested on the HET-CAM at 1 mg/ml, providing a range of 3.6 mM for linolenic acid to 5 mM for lauric acid. […] Results from the controls and an example of a tested candidate are illustrated in Fig. 5.
The HET-CAM was performed as described by Alany and coworkers ([20]). Fertilized white leghorn eggs (Henry Stewart and Co. Ltd., Fakenham, Norfolk, United Kingdom) were checked for damage and incubated at 37°C with 60% to 70% relative humidity. At day 4, the eggs were removed from their shells and placed in incubation chambers. At day 9, the CAMs were tested. This was done by applying 200 µl of the testing material and monitoring inflammatory responses at 30, 120, and 300 s. At each of these time points, the conjunctival irritation potential of the test substance on the CAMs was evaluated by assessing them against the published scoring system ([20]).

S. aureus = tested on: S. aureus; parameters: method as in PMID 22808139; conditions: continuous passage on sublethal concentrations for a year; cited from earlier work
[5] = maximum score 6 = all cells killed

| Compound | Growth inhibition [1] | Log reduction at 1 mM: at least a 4-log reduction in viable bacteria (Yes/No) [2] | log reduction at 1000 µM [2, 5] | Killing of all gonococcal cells for all isolates [3] | MBC [3] | HET-CAM irritancy / reaction at site of application (chorioallantoic membrane) | further results |
| --- | --- | --- | --- | --- | --- | --- | --- |
| CC/C=C\C/C=C\C/C=C\CCCCCCCC(=O)O [Linolenic acid] | Yes | Yes | > 6 | did not | 500 µM (≈ 139 µg/mL) |  | Mean cumulative BCOP score (bovine cornea; 1 mM in saline solution, 30 s exposure, triplicate): lower than 0.5; Fluorescein staining of cornea (bovine cornea; 1 mM, around rubber application ring): any sign of fluorescein staining; BCOP irritancy classification (bovine cornea; candidates 1 mM in saline, controls 0.5 M NaOH, 100% acetone, 30 s exposure): nonirritants; H50 concentration relative to MBC (bovine RBCs): lower than their minimum bactericidal concentration |
| CCCC/C=C\CCCCCCCC(=O)O [Myristoleic acid] | Yes | Yes | > 6 | killed all gonococcal cells for all isolates | 500 µM (≈ 113 µg/mL) |  | Effect of calcium in artificial tear fluid on antimicrobial effect [4]: unaffected; Activity against C. trachomatis (C. trachomatis): ineffective |
| CC(C)=O [Acetone, acetone] |  |  |  |  |  | Medium Irritant |  |
| CCCCCCCCCCCC(=O)OCC(O)CO (centres unmarked) [Monolaurin] | Yes | No |  |  |  |  | Log reduction at 1 mM (calculated log reduction in viable bacteria) [2, 5]: 3.4 log10; Development of antimicrobial resistance (S. aureus): did not develop |
| [Na+].[OH-] [Sodium Hydroxide, sodium hydroxide, reference compound] |  |  |  |  |  | Strong Irritant | Corneal opacity, fluorescein staining and histology of epithelial layer (bovine cornea; Fig. 4): complete detachment |
